From patent publication US11702429B2, “mTORC modulators and uses thereof” (Aeovian Pharmaceuticals, Inc., priority 2019, dated 2023)
Read-outs that look alike come from different tables or passages of the source.

Experiments:
[1] = molecular target: T1, mTORC2 (Homo sapiens, UniProt P42345+P62942); assay: Inhibition assay for mTORC2: phosphorylation of pAkt at Ser473, AlphaLISA in PC3 cells; format: cell-based; settings: for IC50: read-out: pIC50 mTORC2 (converted)
T1 construct: endogenous in cells; host or cells: PC3 cells (human prostate adenocarcinoma)
T1 sequence (P62942 2-108 limits assumed, other chains not shown): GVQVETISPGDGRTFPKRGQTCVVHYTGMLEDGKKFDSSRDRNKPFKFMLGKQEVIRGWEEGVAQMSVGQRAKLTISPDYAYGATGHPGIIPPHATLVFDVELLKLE

[2] = molecular target: T2, mTORC1 (Homo sapiens, UniProt P42345+P62942); assay: Inhibition assay for mTORC1: phosphorylation of pS6K at Thr389, AlphaLISA in PC3 cells; format: cell-based; settings: for IC50: read-out: pIC50 mTORC1 (converted)
T2 construct: endogenous in cells; host or cells: PC3 cells (human prostate adenocarcinoma)

[3] = PC3 cells, treated 24 hours, pAkt Ser473, AlphaLISA, C16 diastereomer mixtures not separated
[4] = PC3 cells, treated 24 hours, pS6K Thr389, AlphaLISA, C16 diastereomer mixtures not separated

SMILES: CO[C@@H]1C[C@H](C[C@@H](C)[C@@H]2CC(=O)[C@H](C)/C=C(\C)[C@@H](O)[C@@H](OC)C(=O)[C@H](C)C[C@H](C)/C=C/C=C/C=C(\C)C(OC[C@@H](C)O)C[C@@H]3CC[C@@H](C)[C@@](O)(O3)C(=O)C(=O)N3CCCC[C@H]3C(=O)O2)CC[C@H]1OCCO (mixture of isomers) [Compound 49]
- IC50 [1, 3]: > 10 µM
- IC50 [2, 4]: 0.000316 to 0.00316 µM

SMILES: COC1C[C@@H]2CC[C@@H](C)[C@@](O)(O2)C(=O)C(=O)N2CCCCC2C(=O)O[C@H]([C@H](C)C[C@@H]2CC[C@@H](OC(=O)NCCC3CC3)[C@H](OC)C2)CC(=O)[C@H](C)/C=C(\C)[C@@H](O)[C@@H](OC)C(=O)[C@H](C)C[C@H](C)/C=C/C=C/C=C/1C (some centres unmarked) [Compound 337]
- IC50 [1]: < 1 µM
- IC50 [2]: < 0.000316 µM

SMILES: COCCOC1CC2CCC(C)C(O)(O2)C(=O)C(=O)N2CCCCC2C(=O)OC(C(C)CC2CCC(OCC(O)CO)C(OC)C2)CC(=O)C(C)C=C(C)C(O)C(OC)C(=O)C(C)CC(C)C=CC=CC=C1C (centres unmarked) [Compound 45]
- pIC50 mTORC2 [1, 3]: B (5 to 6 as B)
- pIC50 mTORC1 [2, 4]: A (pIC50 for mTORC1 of >9.5 as A)

SMILES: CO[C@@H]1C[C@H](C[C@@H](C)[C@@H]2CC(=O)[C@H](C)/C=C(\C)[C@@H](O)[C@@H](OC)C(=O)[C@H](C)C[C@H](C)/C=C/C=C/C=C(\C)C(OCCCCO)C[C@@H]3CC[C@@H](C)[C@@](O)(O3)C(=O)C(=O)N3CCCC[C@H]3C(=O)O2)CC[C@H]1OCCCN1CCOCC1 (mixture of isomers) [Compound 27]
- IC50 [1, 3]: 1 to 10 µM
- IC50 [2, 4]: < 0.000316 µM

SMILES: COCCCOC1C[C@@H]2CC[C@@H](C)[C@@](O)(O2)C(=O)C(=O)N2CCCCC2C(=O)O[C@H]([C@H](C)C[C@@H]2CC[C@@H](O)[C@H](OC)C2)CC(=O)[C@H](C)/C=C(\C)[C@@H](O)[C@@H](OC)C(=O)[C@H](C)C[C@H](C)/C=C/C=C/C=C/1C (some centres unmarked) [Compound 225]
- IC50 [1]: 1 to 10 µM
- IC50 [2]: < 0.000316 µM

SMILES: COC1C[C@@H]2CC[C@@H](C)[C@@](O)(O2)C(=O)C(=O)N2CCCCC2C(=O)O[C@H]([C@H](C)C[C@@H]2CC[C@@H](OCCOCCOCCOCCOCCO)[C@H](OC)C2)CC(=O)[C@H](C)/C=C(\C)[C@@H](O)[C@@H](OC)C(=O)[C@H](C)C[C@H](C)/C=C/C=C/C=C/1C (some centres unmarked) [Compound 350]
- IC50 [1]: < 1 µM
- IC50 [2]: < 0.000316 µM

SMILES: COC1C[C@@H]2CC[C@@H](C)[C@@](O)(O2)C(=O)C(=O)N2CCCCC2C(=O)O[C@H]([C@H](C)C[C@@H]2CC[C@@H](OCCO)[C@H](OC)C2)CC(=O)[C@H](C)/C=C(\C)[C@@H](O)[C@@H](OC)C(=O)[C@H](C)C[C@H](C)/C=C/C=C/C=C/1C (some centres unmarked) [Compound 306]
- IC50 [1]: < 1 µM
- IC50 [2]: < 0.000316 µM

SMILES: CO[C@@H]1C[C@H](C[C@@H](C)[C@@H]2CC(=O)[C@H](C)/C=C(\C)[C@@H](O)[C@@H](OC)C(=O)[C@H](C)C[C@H](C)/C=C/C=C/C=C(\C)C(SC(C)C)C[C@@H]3CC[C@@H](C)[C@@](O)(O3)C(=O)C(=O)N3CCCCC3C(=O)O2)CC[C@H]1O (some centres unmarked) [Compound 201]
- IC50 [1]: 1 to 10 µM
- IC50 [2]: > 0.00316 µM

SMILES: CO[C@@H]1C[C@H](C[C@@H](C)[C@@H]2CC(=O)[C@H](C)/C=C(\C)[C@@H](O)[C@@H](OC)C(=O)[C@H](C)C[C@H](C)/C=C/C=C/C=C(\C)C(OCCc3ccccc3)C[C@@H]3CC[C@@H](C)[C@@](O)(O3)C(=O)C(=O)N3CCCCC3C(=O)O2)CC[C@H]1O (some centres unmarked) [Compound 211]
- IC50 [1]: < 1 µM
- IC50 [2]: < 0.000316 µM

SMILES: CO[C@@H]1C[C@H](C[C@@H](C)[C@@H]2CC(=O)[C@H](C)/C=C(\C)[C@@H](O)[C@@H](OC)C(=O)[C@H](C)C[C@H](C)/C=C/C=C/C=C(\C)C(OCCC3CCOCC3)C[C@@H]3CC[C@@H](C)[C@@](O)(O3)C(=O)C(=O)N3CCCCC3C(=O)O2)CC[C@H]1O (some centres unmarked) [Compound 213]
- IC50 [1]: 1 to 10 µM
- IC50 [2]: 0.000316 to 0.00316 µM
